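Tested at 5 concentrations; 48 h exposure; 96-well plates; endpoints linearly interpolated, else capped at highest concentration. GI50: concentration for 50% inhibition of growth. TGI: concentration producing complete growth inhibition.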
Legend:
Test in all cases: NCI-60 cell line screen, 48 h
HS 578T breast = tested on: HS 578T breast
LOX IMVI melanoma = tested on: LOX IMVI melanoma
M14 melanoma = tested on: M14 melanoma
RPMI-8226 leukemia = tested on: RPMI-8226 leukemia
SW-620 colon = tested on: SW-620 colon
OVCAR-8 ovarian = tested on: OVCAR-8 ovarian
MOLT-4 leukemia = tested on: MOLT-4 leukemia
OVCAR-3 ovarian = tested on: OVCAR-3 ovarian
NCI-H23 lung = tested on: NCI-H23 lung
MDA-MB-231 breast = tested on: MDA-MB-231 breast
SF-268 CNS = tested on: SF-268 CNS
UO-31 renal = tested on: UO-31 renal
A498 renal = tested on: A498 renal
UACC-62 melanoma = tested on: UACC-62 melanoma
SNB-19 CNS = tested on: SNB-19 CNS
MCF7 breast = tested on: MCF7 breast
HCT-116 colon = tested on: HCT-116 colon
U251 CNS = tested on: U251 CNS
SN12C renal = tested on: SN12C renal
SF-539 CNS = tested on: SF-539 CNS
IGROV1 ovarian = tested on: IGROV1 ovarian
PC-3 prostate = tested on: PC-3 prostate
NCI-H522 lung = tested on: NCI-H522 lung
HOP-62 NSCLC = tested on: HOP-62 NSCLC
K-562 leukemia = tested on: K-562 leukemia
SK-MEL-5 melanoma = tested on: SK-MEL-5 melanoma
HCT-15 colon = tested on: HCT-15 colon
RXF 393 renal = tested on: RXF 393 renal
HOP-92 NSCLC = tested on: HOP-92 NSCLC
A549 NSCLC = tested on: A549 NSCLC
CCRF-CEM leukemia = tested on: CCRF-CEM leukemia
DU-145 prostate = tested on: DU-145 prostate
NCI-H226 lung = tested on: NCI-H226 lung
SF-295 CNS = tested on: SF-295 CNS
786-0 renal = tested on: 786-0 renal
HT29 colon = tested on: HT29 colon
SR leukemia = tested on: SR leukemia
NCI/ADR-RES ovarian = tested on: NCI/ADR-RES ovarian
SNB-75 CNS = tested on: SNB-75 CNS
OVCAR-5 ovarian = tested on: OVCAR-5 ovarian
CAKI-1 renal = tested on: CAKI-1 renal
ACHN renal = tested on: ACHN renal
NCI-H460 lung = tested on: NCI-H460 lung
MDA-MB-435 = tested on: MDA-MB-435
MALME-3M melanoma = tested on: MALME-3M melanoma
SK-MEL-2 melanoma = tested on: SK-MEL-2 melanoma
SK-OV-3 ovarian = tested on: SK-OV-3 ovarian
BT-549 breast = tested on: BT-549 breast
HCC-2998 colon = tested on: HCC-2998 colon
TK-10 renal = tested on: TK-10 renal
OVCAR-4 ovarian = tested on: OVCAR-4 ovarian
HL-60(TB) leukemia = tested on: HL-60(TB) leukemia
SK-MEL-28 melanoma = tested on: SK-MEL-28 melanoma
EKVX NSCLC = tested on: EKVX NSCLC
UACC-257 melanoma = tested on: UACC-257 melanoma
COLO 205 colon = tested on: COLO 205 colon
KM12 colon = tested on: KM12 colon
T-47D breast = tested on: T-47D breast

For `COc1c(Nc2ncc(Cl)c(N[C@@H]3[C@H]4C=CC(C4)[C@@H]3C(N)=O)n2)ccc2c1CC[C@@H](N1CCOCC1)CC2`, the GI50 (HS 578T breast) was 1.88 µM, the TGI (HS 578T breast) was 9 µM and the GI50 (LOX IMVI melanoma) was 2.11 µM. It also gave a TGI (LOX IMVI melanoma) of 6.23 µM, a GI50 (M14 melanoma) of 2.14 µM and a TGI (M14 melanoma) of 12.7 µM. For the same molecule, the GI50 (RPMI-8226 leukemia) was 4.28 µM, the TGI (RPMI-8226 leukemia) was 28.5 µM and the GI50 (SW-620 colon) was 2.51 µM. The TGI (SW-620 colon) was 10.2 µM, the GI50 (OVCAR-8 ovarian) was 6.59 µM and the TGI (OVCAR-8 ovarian) was 29.6 µM. For the same molecule, the GI50 (MOLT-4 leukemia) was 4.05 µM, the TGI (MOLT-4 leukemia) was 35.5 µM and the GI50 (OVCAR-3 ovarian) was 7.06 µM. For the same molecule, the TGI (OVCAR-3 ovarian) was 24.5 µM, the GI50 (NCI-H23 lung) was 6.02 µM and the TGI (NCI-H23 lung) was 24.7 µM. The GI50 (MDA-MB-231 breast) was 2.24 µM, the TGI (MDA-MB-231 breast) was 9.36 µM and the GI50 (SF-268 CNS) was 4.71 µM. It also gave a TGI (SF-268 CNS) of 20.8 µM, a GI50 (UO-31 renal) of 2.07 µM and a TGI (UO-31 renal) of 10.7 µM. The GI50 (A498 renal) was 1.39 µM, the TGI (A498 renal) was 4.79 µM and the GI50 (UACC-62 melanoma) was 2.81 µM. For the same molecule, the TGI (UACC-62 melanoma) was 18.8 µM, the GI50 (SNB-19 CNS) was 9.37 µM and the TGI (SNB-19 CNS) was 29.5 µM. For the same molecule, the GI50 (MCF7 breast) was 2.01 µM, the TGI (MCF7 breast) was 17.1 µM and the GI50 (HCT-116 colon) was 2.52 µM. For the same molecule, the TGI (HCT-116 colon) was 10.3 µM, the GI50 (U251 CNS) was 3.2 µM and the TGI (U251 CNS) was 15.7 µM. It also gave a GI50 (SN12C renal) of 3.87 µM, a TGI (SN12C renal) of 29.2 µM and a GI50 (SF-539 CNS) of 2.3 µM. It also gave a TGI (SF-539 CNS) of 8.01 µM, a GI50 (IGROV1 ovarian) of 5.3 µM and a TGI (IGROV1 ovarian) of 35.8 µM. For the same molecule, the GI50 (PC-3 prostate) was 3.94 µM, the TGI (PC-3 prostate) was 23.7 µM and the GI50 (NCI-H522 lung) was 5.47 µM. For the same molecule, the TGI (NCI-H522 lung) was 15 µM, the GI50 (HOP-62 NSCLC) was 2.08 µM and the TGI (HOP-62 NSCLC) was 15 µM. The GI50 (K-562 leukemia) was 5.52 µM, the TGI (K-562 leukemia) was 59.7 µM and the GI50 (SK-MEL-5 melanoma) was 5.81 µM. It also gave a TGI (SK-MEL-5 melanoma) of 19.2 µM, a GI50 (HCT-15 colon) of 3.28 µM and a TGI (HCT-15 colon) of 15.3 µM. It also gave a GI50 (RXF 393 renal) of 1.64 µM, a TGI (RXF 393 renal) of 6.54 µM and a GI50 (HOP-92 NSCLC) of 1.05 µM. The TGI (HOP-92 NSCLC) was 6.77 µM, the GI50 (A549 NSCLC) was 4.02 µM and the TGI (A549 NSCLC) was 17.5 µM. It also gave a GI50 (CCRF-CEM leukemia) of 5.25 µM, a TGI (CCRF-CEM leukemia) of 39.2 µM and a GI50 (DU-145 prostate) of 4.88 µM. The TGI (DU-145 prostate) was 27.2 µM, the GI50 (NCI-H226 lung) was 3.81 µM and the TGI (NCI-H226 lung) was 30.2 µM. For the same molecule, the GI50 (SF-295 CNS) was 4.47 µM, the TGI (SF-295 CNS) was 17.8 µM and the GI50 (786-0 renal) was 1.97 µM. For the same molecule, the TGI (786-0 renal) was 12.2 µM, the GI50 (HT29 colon) was 2.68 µM and the TGI (HT29 colon) was 10.6 µM. The GI50 (SR leukemia) was 0.43 µM, the TGI (SR leukemia) was 5.64 µM and the GI50 (NCI/ADR-RES ovarian) was 4.58 µM. The TGI (NCI/ADR-RES ovarian) was 24.4 µM, the GI50 (SNB-75 CNS) was 1.59 µM and the TGI (SNB-75 CNS) was 5.89 µM. The GI50 (OVCAR-5 ovarian) was 1.4 µM, the TGI (OVCAR-5 ovarian) was 17.8 µM and the GI50 (CAKI-1 renal) was 3.08 µM. For the same molecule, the TGI (CAKI-1 renal) was 14.2 µM, the GI50 (ACHN renal) was 2.66 µM and the TGI (ACHN renal) was 24.3 µM. It also gave a GI50 (NCI-H460 lung) of 4.19 µM, a TGI (NCI-H460 lung) of 18.2 µM and a GI50 (MDA-MB-435) of 2.72 µM. The TGI (MDA-MB-435) was 15.7 µM, the GI50 (MALME-3M melanoma) was 1.7 µM and the TGI (MALME-3M melanoma) was 14.6 µM. For the same molecule, the GI50 (SK-MEL-2 melanoma) was 3.39 µM, the TGI (SK-MEL-2 melanoma) was 11.9 µM and the GI50 (SK-OV-3 ovarian) was 3.43 µM. The TGI (SK-OV-3 ovarian) was 15.2 µM, the GI50 (BT-549 breast) was 3.66 µM and the TGI (BT-549 breast) was 14.8 µM. The GI50 (HCC-2998 colon) was 9.61 µM, the TGI (HCC-2998 colon) was 23.6 µM and the GI50 (TK-10 renal) was 1.7 µM. It also gave a TGI (TK-10 renal) of 15.9 µM, a GI50 (OVCAR-4 ovarian) of 3.68 µM and a TGI (OVCAR-4 ovarian) of 23 µM. For the same molecule, the GI50 (HL-60(TB) leukemia) was 4.86 µM, the TGI (HL-60(TB) leukemia) was 20.6 µM and the GI50 (SK-MEL-28 melanoma) was 3.25 µM. It also gave a TGI (SK-MEL-28 melanoma) of 17.7 µM, a GI50 (EKVX NSCLC) of 1.3 µM and a TGI (EKVX NSCLC) of 10.2 µM. It also gave a GI50 (UACC-257 melanoma) of 4.81 µM, a TGI (UACC-257 melanoma) of 19.8 µM and a GI50 (COLO 205 colon) of 1.74 µM. For the same molecule, the TGI (COLO 205 colon) was 5.5 µM, the GI50 (KM12 colon) was 4.93 µM and the TGI (KM12 colon) was 25.2 µM. For the same molecule, the GI50 (T-47D breast) was 7.78 µM and the TGI (T-47D breast) was 25.5 µM.

Source: PubChem BioAssay (NCI)
